In US20150119363A1, “METHODS OF TREATING BACTERIAL INFECTIONS” (Rampex Pharmaceuticals, Inc., priority 2012, published 2015):
pIC50: −log10 of the molar value.

How the values were obtained:
[1] = tested on: bacterial strains that expressed the beta-lactamase, KPC-2 alone or in combination with NDM-1; assay: Biapenem MIC at various concentrations of Compound 5 (summary); assay type: cell-based
[2] = tested on: KP1008 KPC-2; assay: Dose titration biapenem potentiation assay (MPC1); assay type: cell-based, Klebsiella pneumoniae; conditions: biapenem 1 μg/mL
[3] = tested on: KP1004 KPC-2; assay: Dose titration biapenem potentiation assay (MPC1); assay type: cell-based, Klebsiella pneumoniae; conditions: biapenem 1 μg/mL
[4] = tested on: bacterial strains that expressed the beta-lactamase, NDM-1 and CMY-6; assay: Aztreonam/Tigemonam MIC at various concentrations of BLI (summary); assay type: cell-based
Experimental: MIC values for each bacterial strain were measured for each antimicrobial compound at various concentrations of each BLI.

[5] = tested on: Klebsiella pneumonia (KP1004) KPC-2; assay: Biapenem MIC at various concentrations of Compound 5; assay type: cell-based; conditions: KP1004 KPC-2
[6] = tested on: Escherichia coli (EC1061) NDM-1; assay: as above; assay type: cell-based; conditions: EC1061 NDM-1
[7] = tested on: ECL1004 NMC-A; assay: Dose titration biapenem potentiation assay (MPC1); assay type: cell-based, Enterobacter cloacae; conditions: biapenem 1 μg/mL
Summary of the method: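 Growth of carbapenemase-expressing strains measured with biapenem held at a sub-inhibitory 1 μg/mL; BLI compounds titrated from a top concentration of 40 μg/mL. MPC1 is the inhibitor concentration that restores growth inhibition by biapenem.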

[8] = target: T1, KPC-2 (Klebsiella pneumoniae KP1004 lysate) (Klebsiella pneumoniae, UniProt Q9F663); assay: Inhibition of biapenem hydrolysis by bacterial lysate; assay type: biochemical
T1 construct: Lysates were prepared from bacteria expressing various β-lactamases as a source of enzymes; endogenous in cells; host or cells: Klebsiella pneumoniae strains KP1004 and KP1008 (freeze-thaw lysate supernatants)
Experimental: (§1) The activity of β-lactamase inhibitors to inhibit hydrolysis of biapenem was studied. Lysates were prepared from bacteria expressing various β-lactamases as a source of enzymes. Bacterial lysates were prepared as follows. A single colony from the fresh overnight plate was transferred to 5 mL of LB broth and grown to OD600=0.6-0.8. Next, this culture was transferred to 500 mL of LB and grown to OD600=0.7-0.9. Cells were pelleted by centrifugation at 5000 RPM (JA-14 rotor) for 15 minutes at room temperature. The pellet was resuspended in 10 mL of PBS. Five freeze-thaw cycles by putting cells at −20° C. and thawing them at the room temperature were next applied. After the last thaw step cells were spun down at 18K for 30 minutes and the supernatant was collected. This lysate was stored at −20° C.
(§2) Next, the activity of bacterial lysates was optimized for biapenem cleavage as follows. 50 μl of buffer A (50 mM Sodium Phosphate pH=7; 0.5% glucose, 1 mM MgCl2) was added to each well of 96-well UV-transparent plate. 50 μl of lysate was titrated vertically in 96-well plate column to generate 2-fold lysate dilutions. 100 μl of buffer A was added to each well, placed in plate reader at 37° C. and incubated for 15 minutes. 50 μl of 50 μg/mL solutions of biapenem in buffer A (pre-incubated at 37° C. for 15 minutes) were added to each well. Hydrolysis of biapenem was measured at 296 nm. This experiment was used to determine the optimal lysate dilution which produced a linear curve of relative UV signal that decreased to approximately OD=0.3-0.5 over 1 hour.
(§3) Finally, the potency of cyclic boronic acid derivative to inhibit the cleavage of biapenem cleavage by bacterial lysates was determined. 100 μl of buffer A (50 mM Sodium Phosphate pH=7; 0.5% glucose, 1 mM MgCl2) was added to each well of 96-well UV-transparent plate. 50 μl of 6× cyclic boronic acid derivative solution in buffer A was titrated vertically in 96-well plate column to generate 3-fold dilutions. 50 μl of diluted lysate in buffer A (optimal dilution is determined in experiment above) was added, and the plate was incubated in the plate reader at 37° C. for 15 minutes. 50 μl of 50 μg/mL solution of biapenem in buffer A (pre-incubated at 37° C. for 15 minutes) were next added to each well and hydrolysis of biapenem was recorded at 296 nm. EC50 of inhibition was determined by plotting the rate of biapenem cleavage vs. cyclic boronic acid derivative concentration.

[9] = target: T2, KPC-3 (Escherichia coli EC1007 lysate) (Klebsiella pneumoniae, UniProt Q9F663, H272Y); assay: as above; assay type: biochemical; conditions: EC1007 KPC-3 lysate; read-out: IC50 (μg/mL) of inhibition of biapenem hydrolysis
T2 construct: Lysates were prepared from bacteria expressing various β-lactamases as a source of enzymes; endogenous in cells; host or cells: Escherichia coli strain EC1007 (freeze-thaw lysate supernatant)
Experimental: as §1, §2, §3

[10] = target: T3, SME-2 (Serratia marcescens SM1000 lysate) (Serratia marcescens, UniProt P52682); assay: as above; assay type: biochemical; conditions: SM1000 SME-2 lysate; read-out: IC50 (μg/mL) of inhibition of biapenem hydrolysis
T3 construct: Lysates were prepared from bacteria expressing various β-lactamases as a source of enzymes
Experimental: as §1, §2, §3

[11] = target: T4, KPC-2 (Klebsiella pneumoniae KP1008 lysate) (Klebsiella pneumoniae, UniProt Q9F663); assay: as above; assay type: biochemical
T4 construct: Lysates were prepared from bacteria expressing various β-lactamases as a source of enzymes; endogenous in cells; host or cells: Klebsiella pneumoniae strains KP1004 and KP1008 (freeze-thaw lysate supernatants)
Experimental: as §1, §2, §3

[12] = tested on: E. coli EC1061 (NDM-1 CMY-6); assay: Aztreonam/Tigemonam MIC at various concentrations of BLI; assay type: cell-based; conditions: EC1061
Experimental: MIC values for each bacterial strain were measured for each antimicrobial compound at various concentrations of each BLI. […]

T1 sequence (Q9F663 25-293 limits assumed): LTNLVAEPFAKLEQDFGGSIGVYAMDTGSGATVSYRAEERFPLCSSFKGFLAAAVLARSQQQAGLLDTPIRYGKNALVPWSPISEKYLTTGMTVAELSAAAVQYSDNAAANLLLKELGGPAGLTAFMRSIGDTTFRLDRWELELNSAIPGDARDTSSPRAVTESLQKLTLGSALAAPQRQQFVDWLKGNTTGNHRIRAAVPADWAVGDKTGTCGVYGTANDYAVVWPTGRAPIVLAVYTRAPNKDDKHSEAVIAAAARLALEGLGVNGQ
T4 sequence (Q9F663 25-293 limits assumed): as above
T3 sequence (P52682 28-294 limits assumed): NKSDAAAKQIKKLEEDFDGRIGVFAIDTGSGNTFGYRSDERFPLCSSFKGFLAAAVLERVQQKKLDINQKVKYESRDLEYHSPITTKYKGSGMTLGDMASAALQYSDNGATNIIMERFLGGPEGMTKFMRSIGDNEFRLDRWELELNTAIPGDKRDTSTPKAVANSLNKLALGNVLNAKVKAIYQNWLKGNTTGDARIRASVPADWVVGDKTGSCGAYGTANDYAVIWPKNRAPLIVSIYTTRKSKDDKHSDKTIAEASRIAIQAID
T2 sequence (Q9F663 25-293 H272Y): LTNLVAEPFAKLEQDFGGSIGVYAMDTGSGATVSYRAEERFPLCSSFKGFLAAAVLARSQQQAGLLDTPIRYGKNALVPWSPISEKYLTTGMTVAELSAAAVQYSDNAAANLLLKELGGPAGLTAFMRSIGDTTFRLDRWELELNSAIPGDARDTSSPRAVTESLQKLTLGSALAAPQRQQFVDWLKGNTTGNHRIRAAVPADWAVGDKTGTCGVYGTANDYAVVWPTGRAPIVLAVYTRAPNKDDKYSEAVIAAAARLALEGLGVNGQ

## O=C(O)C[C@@H]1CC[C@H](NC(=O)Cc2cccs2)B(O)O1 [Compound 5, 2-((3R,6S)-2-hydroxy-3-(2-(thiophen-2-yl)acetamido)-1,2-oxaborinan-6-yl)acetic acid]
[1]
  effect on Biapenem MIC: decreased the Biapenem MIC
[2]
  BPM MPC1 KP1008 KPC-2: X (X = MPC1 of less than 1 μg/mL.)
[3]
  BPM MPC1 KP1004 KPC-2: X (X = MPC1 of less than 1 μg/mL.)
[4]
  effect on Aztreonam or Tigemonam MICs: decreased the Aztreonam or Tigemonan MICs
[5]; Compound 5 0.31 μg/ml
  Biapenem MIC: 0.5 µg/mL
[5]; Compound 5 0.63 μg/ml
  Biapenem MIC: 0.25 µg/mL
[5]; Compound 5 5 μg/ml
  Biapenem MIC: 0.06 µg/mL
[5]; Compound 5 10 μg/ml
  Biapenem MIC (μg/ml): ≦0.03 μg/ml
[5]; Compound 5 20 μg/ml
  Biapenem MIC (μg/ml): ≦0.03 μg/ml
[6]; Compound 5 0.31 μg/ml
  Biapenem MIC: 0.13 µg/mL
[6]; Compound 5 0.63 μg/ml
  Biapenem MIC: 0.13 µg/mL
[6]; Compound 5 5 μg/ml
  Biapenem MIC: 0.125 µg/mL
[6]; Compound 5 10 μg/ml
  Biapenem MIC: 0.06 µg/mL
[6]; Compound 5 20 μg/ml
  Biapenem MIC: 0.06 µg/mL
[7]
  BPM MPC1 ECL1004 NMC-A: X (X = MPC1 of less than 1 μg/mL.)
[8]
  pIC50: > 6.47
[9]
  pIC50: > 6.47
[10]
  pIC50: > 6.47
[11]
  pIC50: 5.47 to 6.47
[12]; Compound 5 0.31 μg/ml
  Aztreonam MIC (μg/ml) in the presence of BLI: 4 µg/mL
[12]; Compound 5 0.63 μg/ml
  Aztreonam MIC (μg/ml) in the presence of BLI: 4 µg/mL
[12]; Compound 5 5 μg/ml
  Aztreonam MIC (μg/ml) in the presence of BLI: 0.5 µg/mL
[12]; Compound 5 10 μg/ml
  Aztreonam MIC (μg/ml) in the presence of BLI: 0.5 µg/mL
[12]; Compound 5 20 μg/ml
  Aztreonam MIC (μg/ml) in the presence of BLI: 0.5 µg/mL
[12]; Compound 5 […]
  Aztreonam MIC (μg/ml) in the presence of BLI: 2 µg/mL
